According to patent publication US9096560B2, “5-heterocyclylalkyl-3-hydroxy-2-phenylcyclopent-2-enones as herbicides” (Syngenta Limited, priority 2008, dated 2015):

Legend:
Type in all cases: in vivo
[1] = test system: Echinochloa crus-galli (ECHCG); experiment: Example B post-emergence herbicidal test, ECHCG; details: Echinochloa crus-galli, 312 h, rate 250 g/ha, evaluated after 13 days, scale 0-100, read-out: Post-emergence activity ECHCG (100=total damage to plant; 0=no damage to plant)
Description: (§1) Seeds of a variety of test species were sown in standard soil in pots. After cultivation for one day (pre-emergence) or after 8 days cultivation (post-emergence) under controlled conditions in a glasshouse (at 24/16° C., day/night; 14 hours light; 65% humidity), the plants were sprayed with an aqueous spray solution derived from the formulation of the technical active ingredient in acetone/water (50:50) solution containing 0.5% Tween 20 (polyoxyethelyene sorbitan monolaurate, CAS RN 9005-64-5). The test plants were then grown in a glasshouse under controlled conditions in a glasshouse (at 24/16° C., day/night; 14 hours light; 65% humidity) and watered twice daily. After 13 days for pre and post-emergence, the test was evaluated (100=total damage to plant; 0=no damage to plant). Lolium perenne (LOLPE), Alopecurus myosuroides (ALOMY), Echinochloa crus-galli (ECHCG), Avena fatua (AVEFA) Post-Emergence Activity

Avena fatua (AVEFA) [2] = experiment: Example B pre-emergence herbicidal test, AVEFA; details: Avena fatua, 312 h, rate 250 g/ha, evaluated after 13 days, 100=total damage to plant, 0=no damage to plant
Description: as §1, with “Pre-Emergence” for “Post-Emergence”

[3] = test system: Alopecurus myosuroides (ALOMY); experiment: Example B post-emergence herbicidal test, ALOMY; details: Alopecurus myosuroides, 312 h, rate 250 g/ha, evaluated after 13 days, scale 0-100, read-out: Post-emergence activity ALOMY (100=total damage to plant; 0=no damage to plant)
Description: as §1

[4] = test system: Echinochloa crus-galli (ECHCG); experiment: Example B pre-emergence herbicidal test, ECHCG; details: Echinochloa crus-galli, 312 h, rate 250 g/ha, evaluated after 13 days, 100=total damage to plant, 0=no damage to plant
Description: as §1, with “Pre-Emergence” for “Post-Emergence”

Avena fatua (AVEFA) [5] = experiment: Example B post-emergence herbicidal test, AVEFA; details: Avena fatua, 312 h, rate 250 g/ha, evaluated after 13 days, scale 0-100, read-out: Post-emergence activity AVEFA (100=total damage to plant; 0=no damage to plant)
Description: as §1

[6] = test system: Alopecurus myosuroides (ALOMY); experiment: Example B pre-emergence herbicidal test, ALOMY; details: Alopecurus myosuroides, 312 h, rate 250 g/ha, evaluated after 13 days, 100=total damage to plant, 0=no damage to plant
Description: as §1, with “Pre-Emergence” for “Post-Emergence”

Lolium perenne (LOLPE) [7] = experiment: Example B post-emergence herbicidal test, LOLPE; details: Lolium perenne, 312 h, rate 250 g/ha, evaluated after 13 days, scale 0-100, read-out: Post-emergence activity LOLPE (100=total damage to plant; 0=no damage to plant)
Description: as §1

Lolium perenne (LOLPE) [8] = experiment: Example B pre-emergence herbicidal test, LOLPE; details: Lolium perenne, 312 h, rate 250 g/ha, evaluated after 13 days, 100=total damage to plant, 0=no damage to plant
Description: as §1, with “Pre-Emergence” for “Post-Emergence”

| SMILES | pest or weed control at 250 g/ha [1] [%] | pest or weed control at 250 g/ha (Avena fatua (AVEFA) [2]) [%] | pest or weed control at 250 g/ha [3] [%] | pest or weed control at 250 g/ha [4] [%] | pest or weed control at 250 g/ha (Avena fatua (AVEFA) [5]) [%] | pest or weed control at 250 g/ha [6] [%] | pest or weed control at 250 g/ha (Lolium perenne (LOLPE) [7]) [%] | pest or weed control at 250 g/ha (Lolium perenne (LOLPE) [8]) [%] |
| --- | --- | --- | --- | --- | --- | --- | --- | --- |
| Cc1cc(C)c(C2=C(OC(=O)N3CCCCC3)CC(CC3CCOC3)C2=O)c(C)c1 (centres unmarked) [Compound P29] | 30 | 20 | 80 | 0 | 70 | 50 | 100 | 90 |
| CCSC(=O)OC1=C(c2c(C)cc(C)cc2C)C(=O)C(CC2CCOC2)C1 (centres unmarked) [Compound P30] | 90 | 90 | 100 | 80 | 100 | 100 | 100 | 100 |
| Cc1cc(C)c(C2=C(OC(=O)c3ccco3)CC(CC3CCN(C(=O)c4ccco4)C3)C2=O)c(C)c1 (centres unmarked) [Compound P62] | 70 | – | 70 | – | 70 | – | 80 | – |
| COC1=C(c2c(C)cc(C)cc2C)C(=O)C/C1=C\C1CCOCC1 [Compound P69] | 80 | – | 0 | – | 20 | – | 40 | – |
| Cc1cc(C)c(C2C(=O)CC(C(O)C3CCSCC3)C2=O)c(C)c1 (centres unmarked) [Compound T6] | 10 | – | 20 | – | 0 | – | 10 | – |
| Cc1cc(C)c(C2C(=O)CC(CC3CCNCC3)C2=O)c(C)c1 (centres unmarked) [Compound T53] | – | 0 | – | 0 | – | 30 | – | 40 |
| Cc1ccc(S(=O)(=O)N2CCC(CC3CC(=O)C(c4c(C)cc(C)cc4C)C3=O)CC2)cc1 (centres unmarked) [Compound T109] | – | 0 | – | 0 | – | 0 | – | 0 |
| Cc1cc(C)c(C2C(=O)CC(CC3CCN(C(=O)/C=C/c4ccccc4)CC3)C2=O)c(C)c1 (centres unmarked) [Compound T116] | 50 | – | 60 | – | 90 | – | 90 | – |
| Cc1cc(-c2ccc(C(F)(F)F)cc2)cc(C)c1C1C(=O)C/C(=C\C2CCOCC2)C1=O (centres unmarked) [Compound T133] | 90 | – | 20 | – | 30 | – | 0 | – |
| Cc1cc(-c2ccc(C(F)(F)F)cc2)cc(C)c1C1C(=O)CC(CC2CCOCC2)C1=O (centres unmarked) [Compound T136] | 60 | – | 50 | – | 70 | – | 30 | – |
| CCC1(CC2CCOC2)CC(=O)C(c2c(C)cc(C)cc2C)C1=O (centres unmarked) [Compound T152] | 10 | – | 20 | – | 10 | – | 30 | – |
| COCC1(CC2CCOC2)CC(=O)C(c2c(C)cc(C)cc2C)C1=O (centres unmarked) [Compound T153] | 10 | – | 10 | – | 20 | – | 20 | – |
